The source of these data is publication PMC7125515 (Bioorganic & Medicinal Chemistry, 2011).

pEC50, pKi: −log10 of the molar value. “Also recorded” adds a separate entry of the source.

One test deals with herpes- and poxviruses. The experiment in a line: organism not typed. Format: cell-based. Particulars: for Activity against herpes- and poxviruses (in words): DNA viruses: VACV, HSV-1, HSV-2, TK- HSV-1, VZV; for Activity against herpes- and poxviruses (in words) / Selectivity index (ratio CC50:EC50), HCMV: HCMV; for Selectivity index (ratio CC50:EC50), HCMV / Selectivity index (ratio CC50:EC50), HSV / Selectivity index (ratio CC50:EC50), VZV: CC50 in HEL; for Selectivity index (ratio CC50:EC50), VZV: different VZV strains.

The target in test [1] is hypoxanthine-guanine-xanthine phosphoribosyltransferase (HGXPRT). Particulars: read-out: Ki, HGXPRT; Plasmodium falciparum enzyme; cited from earlier work.
Test [2] relates to Vaccinia virus Lederle strain. The format is cell-based.

Turning to `Nc1ncnc2c1ncn2CCOC(COCc1ccccc1)CP(=O)(O)O` (centres unmarked) [Compound 9d, 9-[2-(3-Benzyloxy-1-phosphonopropan-2-yloxy)ethyl]adenine], the “Activity against herpes- and poxviruses (in words)” value (“Activity” for short) in the test on herpes- and poxviruses was “inactive”.
On to `Nc1ccn(C[C@@H](CO)OCP(=O)(O)O)c(=O)n1.O.O` [Cidofovir, reference compound], for which, in the test on herpes- and poxviruses, the “Selectivity index (ratio CC50:EC50), HCMV” value is 195–282; the “Selectivity index (ratio CC50:EC50), HSV” value is 322–363; the “Selectivity index (ratio CC50:EC50), VZV” value was 880–2540.
Regarding `Nc1nc2c(ncn2CCOCCP(=O)(O)O)c(=O)[nH]1` [PEEG], the pKi in test [1] was 7.00.
Turning to `CC(CP(=O)(O)O)OCCn1cnc2c(N)ncnc21` (centres unmarked) [Compound 9a, 9-[2-(1-Phosphonopropan-2-yloxy)ethyl]adenine], in the test with herpes- and poxviruses, the “Selectivity index (ratio CC50:EC50), HCMV” value is listed as 14–15; the “Selectivity index (ratio CC50:EC50), HSV” value is 6–10; the “Selectivity index (ratio CC50:EC50), VZV” value was 120–190. Also, in the test on herpes- and poxviruses (read-out: EC50 values against different human herpesviruses (range)), the pEC50 was 5.64 to 7.15. Further, the “Selectivity index (ratio CC50:EC50), vaccinia virus” value in test [2] was < 1.
For `Cc1cn(CCOC(CO)CP(=O)(O)O)c(=O)[nH]c1=O` (centres unmarked) [Compound 15e, 9-[2-(3-Hydroxy-1-phosphonopropan-2-yloxy)ethyl]thymine], in the test with herpes- and poxviruses, the “Activity” value was “inactive”.
For the molecule `CC(CP(=O)(O)O)OCCn1cnc2c(N)nc(N)nc21` (centres unmarked) [Compound 14, 9-[2-(1-Phosphonopropan-2-yloxy)ethyl]diaminopurine], the “Activity” value with herpes- and poxviruses was “inactive”.
For `Nc1ncnc2c1ncn2CCOC(CO)CP(=O)(O)O` (centres unmarked) [Compound 9e, 9-[2-(3-Hydroxy-1-phosphonopropan-2-yloxy)ethyl]adenine], in the test with herpes- and poxviruses, the “Activity” value was “inactive; also recorded: annihilated the anti-DNA virus activity”.
Take `O=c1[nH]cnc2c1ncn2CCOCCP(=O)(O)O` [PEEHx]: in test [1], the pKi was 6.52.
